Measurements published in patent publication US8791132B2, “Compounds and methods for treatment of hypertension” (Medivation Technologies, Inc., priority 2011, dated 2014).
Where two headings read alike, the source gives them in different places.

Assays:
[1] = target: T1, human recombinant adrenergic α2A receptor (Homo sapiens, UniProt P08913); assay: Radioligand binding, adrenergic α2A ([3H]MK-912); settings: for Percentage inhibition of ligand binding, Adrenergic α2A (0.1 μM) / Percentage inhibition of ligand binding, Adrenergic α2A: 0.1 µM
T1 construct: expressed in transfected cells; host or cells: insect Sf9 cells
T1 sequence (P08913 1-465): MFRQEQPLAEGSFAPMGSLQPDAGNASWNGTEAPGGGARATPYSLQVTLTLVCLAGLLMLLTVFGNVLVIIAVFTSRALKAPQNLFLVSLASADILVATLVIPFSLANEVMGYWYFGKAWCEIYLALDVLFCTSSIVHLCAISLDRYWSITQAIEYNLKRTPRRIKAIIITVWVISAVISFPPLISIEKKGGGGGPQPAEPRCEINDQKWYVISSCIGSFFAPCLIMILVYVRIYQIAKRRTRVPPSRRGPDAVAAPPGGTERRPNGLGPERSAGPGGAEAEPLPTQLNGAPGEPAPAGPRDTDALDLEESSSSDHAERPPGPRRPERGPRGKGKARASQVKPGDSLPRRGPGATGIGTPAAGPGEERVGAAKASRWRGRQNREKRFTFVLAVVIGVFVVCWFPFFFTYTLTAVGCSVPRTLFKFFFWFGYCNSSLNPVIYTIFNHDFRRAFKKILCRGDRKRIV
Procedure, shortened: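 Sf9-expressed receptor was incubated with compound for 60 min at 25 °C in modified Tris-HCl buffer, pH 7.4. Nonspecific binding was taken as that remaining with 10 μM WB-4101.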

[2] = target: T2, rat adrenergic α1B receptor (Rattus norvegicus, UniProt P15823); assay: Radioligand binding, adrenergic α1B ([3H]Prazosin); settings: for Percentage inhibition of ligand binding, Adrenergic α1B (0.1 μM) / Percentage inhibition of ligand binding, Adrenergic α1B: 0.1 µM
T2 construct: rat adrenergic α1B receptor obtained from Wistar Rat liver; from tissue; host or cells: Wistar rat liver
T2 sequence (P15823 1-515): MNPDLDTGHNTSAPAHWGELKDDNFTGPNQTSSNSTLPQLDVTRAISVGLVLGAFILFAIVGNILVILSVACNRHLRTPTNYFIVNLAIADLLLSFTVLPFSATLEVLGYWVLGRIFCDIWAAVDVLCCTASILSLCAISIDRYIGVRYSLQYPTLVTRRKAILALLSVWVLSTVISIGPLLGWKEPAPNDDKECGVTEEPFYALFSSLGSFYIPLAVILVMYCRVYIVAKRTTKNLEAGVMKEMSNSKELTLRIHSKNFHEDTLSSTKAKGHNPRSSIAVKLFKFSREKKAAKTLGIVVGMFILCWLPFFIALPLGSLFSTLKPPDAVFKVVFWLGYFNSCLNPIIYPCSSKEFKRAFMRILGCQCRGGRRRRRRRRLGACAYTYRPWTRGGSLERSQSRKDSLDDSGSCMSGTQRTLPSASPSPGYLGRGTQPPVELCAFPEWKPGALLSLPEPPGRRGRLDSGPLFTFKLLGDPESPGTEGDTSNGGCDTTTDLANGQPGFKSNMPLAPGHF
Procedure, shortened: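 Filter binding with Wistar rat liver α1B preparation: test compound plus 0.25 nM [3H]prazosin, 1 h at 25° C in modified Tris-HCl buffer pH 7.4.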

[3] = target: T3, human recombinant adrenergic α2B receptor (Homo sapiens, UniProt P18089); assay: Radioligand binding, adrenergic α2B ([3H]Rauwolscine); settings: for Percentage inhibition of ligand binding, Adrenergic α2B (0.03 μM) / Percentage inhibition of ligand binding, Adrenergic α2B: 0.03 µM
T3 construct: expressed in transfected cells; host or cells: CHO-K1
T3 sequence (P18089 1-450): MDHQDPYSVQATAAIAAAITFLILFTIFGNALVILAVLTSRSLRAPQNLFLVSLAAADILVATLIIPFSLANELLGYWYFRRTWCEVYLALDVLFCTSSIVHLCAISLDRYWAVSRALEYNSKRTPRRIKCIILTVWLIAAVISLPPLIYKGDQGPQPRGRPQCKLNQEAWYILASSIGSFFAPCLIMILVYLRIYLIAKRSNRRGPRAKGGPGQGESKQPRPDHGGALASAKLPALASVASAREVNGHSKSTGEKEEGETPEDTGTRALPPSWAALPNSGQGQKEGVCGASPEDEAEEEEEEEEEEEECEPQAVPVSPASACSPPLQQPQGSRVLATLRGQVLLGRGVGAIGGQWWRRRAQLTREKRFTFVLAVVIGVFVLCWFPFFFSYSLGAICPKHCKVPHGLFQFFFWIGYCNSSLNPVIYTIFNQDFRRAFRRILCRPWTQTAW
Procedure, shortened: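 Receptor expressed in CHO-K1 cells, assayed in 50 mM Tris-HCl pH 7.4 with 12.5 mM MgCl2, 1 mM EDTA and 0.2% BSA. Compounds were incubated with 2.5 nM [3H]Rauwolscine for 60 min at 25° C; 10 μM Prazosin defined non-specific binding. Filter counting gave percent inhibition of specific binding.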

[4] = compound at 0.1 μM, [3H]MK-912, repeat datapoints each shown
[5] = compound at 0.1 μM, [3H]Prazosin, repeat datapoints each shown
[6] = compound at 0.03 μM, [3H]Rauwolscine, repeat datapoints each shown
[7] = compound at 0.1 μM, [3H]MK-912, repeat assays, each datapoint shown
[8] = compound at 0.1 μM, [3H]Prazosin, repeat assays, each datapoint shown
[9] = compound at 0.03 μM, [3H]Rauwolscine, repeat assays, each datapoint shown
[10] = 0.1 μM compound, read-out: Percentage inhibition of ligand binding, Adrenergic α2A
[11] = 0.1 μM compound, read-out: Percentage inhibition of ligand binding, Adrenergic α1B
[12] = 0.03 μM compound, read-out: Percentage inhibition of ligand binding, Adrenergic α2B
[13] = read-out: Percentage inhibition of ligand binding, Adrenergic α2A (0.1 μM), compound at 0.1 μM, [3H]MK-912, repeat datapoints each shown
[14] = read-out: Percentage inhibition of ligand binding, Adrenergic α1B (0.1 μM), compound at 0.1 μM, [3H]Prazosin, repeat datapoints each shown
[15] = read-out: Percentage inhibition of ligand binding, Adrenergic α2B (0.03 μM), compound at 0.03 μM, [3H]Rauwolscine, repeat datapoints each shown

## Cc1ccc2c(c1)c1c(n2CC(C)(O)c2cccnc2)CCN(C)C1C (single isomer, unassigned) [II-152b]
[1]; [4]
  Percentage inhibition of ligand binding, Adrenergic α2A (0.1 μM): 6%
[2]; [5]
  Percentage inhibition of ligand binding, Adrenergic α1B (0.1 μM): 2%
[3]; [6]
  Percentage inhibition of ligand binding, Adrenergic α2B (0.03 μM): 61%

## Cc1cnc2c(c1)c1c(n2CC(O)c2ccncc2)CCN2CCCC12 (single isomer, unassigned) [IV-209a, 2-(9-Methyl-1,2,3,4,5,10c-hexahydro-3a,6,7-triaza-cyclopenta[c]fluoren-6-yl)-1-pyridin-4-yl-ethanol]
[1]; [4]
  Percentage inhibition of ligand binding, Adrenergic α2A (0.1 μM): 6%
[2]; [5]
  Percentage inhibition of ligand binding, Adrenergic α1B (0.1 μM): 89%
[3]; [6]
  Percentage inhibition of ligand binding, Adrenergic α2B (0.03 μM): 72%

## CC(O)(Cn1c2c(c3cc(Cl)ccc31)CNCC2)c1cccnc1 (single isomer, unassigned) [175b]
[1]; [4]
  Percentage inhibition of ligand binding, Adrenergic α2A (0.1 μM): 7%
[2]; [5]
  Percentage inhibition of ligand binding, Adrenergic α1B (0.1 μM): 4%
[3]; [6]
  Percentage inhibition of ligand binding, Adrenergic α2B (0.03 μM): 4%

## COc1ccc(C(O)Cn2c3c(c4cc(C)ccc42)CN(C)CC3)cn1 (single isomer, unassigned) [51b, 2-(2,8-dimethyl-1,2,3,4-tetrahydro-pyrido[4,3-b]indol-5-yl)-1-(6-methoxy-pyridin-3-yl)-ethanol]
[1]; [7]
  Percentage inhibition of ligand binding, Adrenergic α2A: 26%
[2]; [8]
  Percentage inhibition of ligand binding, Adrenergic α1B: 36%
[3]; [9]
  Percentage inhibition of ligand binding, Adrenergic α2B: 90%

## Cc1ccc2c(c1)c1c(n2CC(C)(N)c2cccnc2)CCN(C)C1 (single isomer, unassigned) [149b, 1-(2,8-dimethyl-3,4-dihydro-1H-pyrido[4,3-b]indol-5(2H)-yl)-2-(pyridin-3-yl)propan-2-amine]
[1]; [4]
  Percentage inhibition of ligand binding, Adrenergic α2A (0.1 μM): 19%
[2]; [5]
  Percentage inhibition of ligand binding, Adrenergic α1B (0.1 μM): 16%
[3]; [6]
  Percentage inhibition of ligand binding, Adrenergic α2B (0.03 μM): 32%

## Cc1ccc2c(c1)c1c(n2CC(O)c2ccncc2)C(C)N2CCC1C2 (single isomer, unassigned) [38b]
[1]; [7]
  Percentage inhibition of ligand binding, Adrenergic α2A: −1%
[2]; [8]
  Percentage inhibition of ligand binding, Adrenergic α1B: 20%
[3]; [9]
  Percentage inhibition of ligand binding, Adrenergic α2B: 17%

## Cc1ccc2c(c1)c1c(n2CC(NC2CCC2)c2ccncc2)CCN(C)C1 (stereo not drawn) [II-13, cyclobutyl-[2-(2,8-dimethyl-1,2,3,4-tetrahydro-pyrido[4,3-b]indol-5-yl)-1-pyridin-4-yl-ethyl]-amine]
[1]; [10]
  inhibition at 0.1 µM: 9%
[2]; [11]
  inhibition at 0.1 µM: 9%
[3]; [12]
  inhibition at 0.03 µM: 73%

## Cc1cnc2c(c1)c1c(n2CC(C)(O)c2cccnc2)CCN(C)C1 (single isomer, unassigned) [II-99b]
[1]; 0.1 μM compound
  Percentage inhibition of ligand binding, Adrenergic α2A: 16%
[2]; 0.1 μM compound
  Percentage inhibition of ligand binding, Adrenergic α1B: 5%
[3]; 0.03 μM compound
  Percentage inhibition of ligand binding, Adrenergic α2B: 7%

## CC(O)(Cn1c2c(c3cc(Cl)ccc31)C1CCCN1CC2)c1cccnc1 (stereo not drawn) [II-130, 1-(10-chloro-2,3,5,6-tetrahydro-1H-indolizino[7,8-b]indol-7(11cH)-yl)-2-(pyridin-3-yl)propan-2-ol]
[1]; [4]
  Percentage inhibition of ligand binding, Adrenergic α2A (0.1 μM): 41%
[2]; [5]
  Percentage inhibition of ligand binding, Adrenergic α1B (0.1 μM): 43%
[3]; [6]
  Percentage inhibition of ligand binding, Adrenergic α2B (0.03 μM): 97%

## Cc1cnc2c(c1)c1c(n2CC(O)c2ccncc2)CCN2CCCC12 (single isomer, unassigned) [IV-209d, 2-(9-Methyl-1,2,3,4,5,10c-hexahydro-3a,6,7-triaza-cyclopenta[c]fluoren-6-yl)-1-pyridin-4-yl-ethanol]
[1]; [4]
  Percentage inhibition of ligand binding, Adrenergic α2A (0.1 μM): 8%
[2]; [5]
  Percentage inhibition of ligand binding, Adrenergic α1B (0.1 μM): 54%
[3]; [6]
  Percentage inhibition of ligand binding, Adrenergic α2B (0.03 μM): 79%

## C=C(Cn1c2c(c3cc(C)ccc31)CN(C)CC2)c1cccnc1 [compound 132]
[1]; [13]
  inhibition at 0.1 µM: 19%
[2]; [14]
  inhibition at 0.1 µM: 28%
[3]; [15]
  inhibition at 0.03 µM: 91%

## CNC(Cn1c2c(c3cc(C)ccc31)CN(C)CC2)c1ccc(F)cc1 (stereo not drawn) [II-12, 2-(2,8-dimethyl-3,4-dihydro-1H-pyrido[4,3-b]indol-5(2H)-yl)-1-(4-fluorophenyl)-N-methyl ethanamine]
[1]; 0.1 μM compound
  Percentage inhibition of ligand binding, Adrenergic α2A: 11%
[2]; 0.1 μM compound
  Percentage inhibition of ligand binding, Adrenergic α1B: 18%
[3]; 0.03 μM compound
  Percentage inhibition of ligand binding, Adrenergic α2B: 65%

## Cc1ccc2c(c1)c1c(n2CC(N)c2ccncc2)CCN(C)CC1 (stereo not drawn) [compound 154, 2-(3,9-dimethyl-2,3,4,5-tetrahydroazepino[4,5-b]indol-6(1H)-yl)-1-(pyridin-4-yl)ethanamine]
[1]; [4]
  Percentage inhibition of ligand binding, Adrenergic α2A (0.1 μM): 15%
[2]; [5]
  Percentage inhibition of ligand binding, Adrenergic α1B (0.1 μM): 86%
[3]; [6]
  Percentage inhibition of ligand binding, Adrenergic α2B (0.03 μM): 58%

## CN1CCc2c(c3cc(Cl)ccc3n2CC(C)(O)c2cccnc2)C1 (stereo not drawn) [31b]
[1]; compound at 0.1 μM, [3H]MK-912, repeat assays, each datapoint shown, read-out: Percentage inhibition of ligand binding, Adrenergic α2A
  inhibition at 0.1 µM: 14%
[2]; compound at 0.1 μM, [3H]Prazosin, repeat assays, each datapoint shown, read-out: Percentage inhibition of ligand binding, Adrenergic α1B
  inhibition at 0.1 µM: 3%
[3]; compound at 0.03 μM, [3H]Rauwolscine, repeat assays, each datapoint shown, read-out: Percentage inhibition of ligand binding, Adrenergic α2B
  inhibition at 0.03 µM: 36%

## CC1c2c(c3cc(Cl)ccc3n2CC(O)c2ccncc2)CCN1C (stereo not drawn) [II-72]
[1]; [10]
  inhibition at 0.1 µM: 25%
[2]; [11]
  inhibition at 0.1 µM: 30%
[3]; [12]
  inhibition at 0.03 µM: 47%

## CN1CCc2c(c3ncccc3n2CC(O)c2ccncc2)C1 (stereo not drawn) [II-241]
[1]; [13]
  inhibition at 0.1 µM: -1%
[2]; [14]
  inhibition at 0.1 µM: 5%
[3]; [15]
  inhibition at 0.03 µM: -1%

## CN1CCc2c(n(CC(O)c3cccnc3)c3ccc(Cl)cc23)C1 (stereo not drawn) [II-87]
[1]; [10]
  inhibition at 0.1 µM: 1%
[2]; [11]
  inhibition at 0.1 µM: 11%
[3]; [12]
  inhibition at 0.03 µM: 24%
